Publication PMC6369001 (European journal of medicinal chemistry, 2019)
Where a name gives a salt, the structure may show the parent alone.

Legend:
[1] = tested on: effects of methamphetamine; conditions: mice; ref 33 (compound 1), ref 35 (compound 2, pretreatment); cited from earlier work
effects of cocaine = conditions: cited from earlier work; for Effects against cocaine in behavioral models: rodents, ref 32 (compound 1), ref 34 (compound 2)
σ2R = biological target: T1, σ2R (Rattus norvegicus, UniProt Q5U3Y7); assay: σ2R radioligand competition binding; conditions: selectivity ratio σ1R over σ2R
T1 sequence (Q5U3Y7 1-176): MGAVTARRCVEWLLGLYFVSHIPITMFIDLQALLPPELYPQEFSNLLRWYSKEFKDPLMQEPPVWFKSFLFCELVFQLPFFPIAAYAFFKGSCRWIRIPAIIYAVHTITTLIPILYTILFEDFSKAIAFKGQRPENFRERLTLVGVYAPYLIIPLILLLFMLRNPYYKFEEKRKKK

[2] = biological target: norepinephrine transporters (Rattus norvegicus, UniProt Q63380); assay: Norepinephrine transporter binding
[3] = tested on: cocaine-induced convulsions; assay: In vivo cocaine-induced convulsion studies; conditions: mice, 10 mg/kg i.p. pretreatment; P<0.005 vs vehicle, Fisher's exact test
[4] = biological target: Serotonin (5-HT2) receptors (Rattus norvegicus, UniProt P14842); assay: Serotonin; format: binding; conditions: ratio of Ki 5-HT2 to Ki σ2R
serotonin transporters = serotonin transporters (Rattus norvegicus, UniProt P31652); assay: Serotonin transporter binding; conditions: ratio of Ki serotonin transporter to Ki σ2R
Chain of serotonin transporters (P31652 whole entry): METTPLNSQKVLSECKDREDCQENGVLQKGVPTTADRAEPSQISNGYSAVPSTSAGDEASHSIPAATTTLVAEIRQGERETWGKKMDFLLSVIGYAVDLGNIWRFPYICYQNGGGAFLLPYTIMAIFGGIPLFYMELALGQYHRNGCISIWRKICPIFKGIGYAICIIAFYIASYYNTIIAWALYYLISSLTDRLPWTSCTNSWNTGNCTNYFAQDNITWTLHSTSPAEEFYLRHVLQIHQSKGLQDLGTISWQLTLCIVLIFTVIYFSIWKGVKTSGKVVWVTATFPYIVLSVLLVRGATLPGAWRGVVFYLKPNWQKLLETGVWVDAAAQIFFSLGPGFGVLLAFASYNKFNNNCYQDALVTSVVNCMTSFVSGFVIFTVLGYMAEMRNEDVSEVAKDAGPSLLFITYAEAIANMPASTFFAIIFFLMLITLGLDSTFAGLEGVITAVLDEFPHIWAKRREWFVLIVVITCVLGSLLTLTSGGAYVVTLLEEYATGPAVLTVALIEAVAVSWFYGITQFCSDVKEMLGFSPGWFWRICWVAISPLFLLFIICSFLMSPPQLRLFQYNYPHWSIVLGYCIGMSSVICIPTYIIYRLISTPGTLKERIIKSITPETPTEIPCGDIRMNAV

Chain of norepinephrine transporters (Q63380 1-617): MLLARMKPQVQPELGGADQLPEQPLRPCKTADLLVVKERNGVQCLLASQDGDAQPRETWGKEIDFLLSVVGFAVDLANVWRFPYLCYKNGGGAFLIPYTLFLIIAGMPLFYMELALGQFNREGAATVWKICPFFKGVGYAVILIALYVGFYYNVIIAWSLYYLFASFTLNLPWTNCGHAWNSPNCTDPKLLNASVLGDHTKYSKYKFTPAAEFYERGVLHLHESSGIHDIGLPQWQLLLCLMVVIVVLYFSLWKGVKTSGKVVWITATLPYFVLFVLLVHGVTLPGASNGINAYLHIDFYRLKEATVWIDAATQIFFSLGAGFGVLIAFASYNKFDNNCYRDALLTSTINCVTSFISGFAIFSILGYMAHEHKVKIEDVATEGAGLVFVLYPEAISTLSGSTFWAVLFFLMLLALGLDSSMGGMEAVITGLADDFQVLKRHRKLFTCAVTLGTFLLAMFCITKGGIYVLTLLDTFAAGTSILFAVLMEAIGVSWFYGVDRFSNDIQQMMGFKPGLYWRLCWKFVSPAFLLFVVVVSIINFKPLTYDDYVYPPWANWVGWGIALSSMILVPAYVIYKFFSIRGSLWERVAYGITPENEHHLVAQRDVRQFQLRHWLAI
Chain of Serotonin (5-HT2) receptors (P14842 whole entry): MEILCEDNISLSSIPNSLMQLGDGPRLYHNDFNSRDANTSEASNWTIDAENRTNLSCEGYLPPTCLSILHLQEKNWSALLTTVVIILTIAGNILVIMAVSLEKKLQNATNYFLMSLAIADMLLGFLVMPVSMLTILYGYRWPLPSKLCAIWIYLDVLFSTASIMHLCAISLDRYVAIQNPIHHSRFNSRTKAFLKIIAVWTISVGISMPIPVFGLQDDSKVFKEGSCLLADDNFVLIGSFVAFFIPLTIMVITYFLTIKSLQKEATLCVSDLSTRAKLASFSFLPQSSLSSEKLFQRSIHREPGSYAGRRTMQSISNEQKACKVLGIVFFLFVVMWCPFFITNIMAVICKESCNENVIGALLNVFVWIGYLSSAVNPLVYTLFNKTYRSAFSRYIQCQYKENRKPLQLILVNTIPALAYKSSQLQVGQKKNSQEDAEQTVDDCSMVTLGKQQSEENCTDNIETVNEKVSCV

Row | Structure (SMILES) | Effects against methamphetamine [1] | Effects against cocaine in behavioral models (effects of cocaine) | Ki [2] | further results
1 | S=c1sc2ccccc2n1CCCCN1CCN(C2CCCCC2)CC1 [Compound 1, 3-[4-(4-cyclohexylpiperazin-1-yl)butyl]-2(3H)-benzothiazolethione] | mitigate the effects of methamphetamine | produced both acute and subchronic effects against cocaine | – | –
2 | CC(=O)c1ccc2c(c1)oc(=O)n2CCCCN1CCN(c2ccc(F)cc2)CC1 [Compound 2, 6-acetyl-3-{4-[4-(4-fluorophenyl)piperazin-1-yl]butyl}-2(3H)-benzoxazolone] | afforded protection against methamphetamine-induced hyperthermia, and striatal dopaminergic and serotonergic neurotoxicity | reduced the toxic and stimulant effects of cocaine | – | Sedation and incoordination (effects of cocaine; acute treatment): caused sedation and incoordination
3 | CCCn1c(=O)n(CCCCN2CCN(c3ccc(F)cc3)CC2)c2ccccc21 [Compound 14] | – | – | > 10 µM | Ki σ1/ Ki σ2 (σ2R): > 1000; Protective effect against cocaine-induced convulsions, statistical significance [3]: statistically significant
4 | CCCCCn1c(=O)n(CCCCN2CCN(c3ccc(F)cc3)CC2)c2ccccc21 [Compound 15, 1-{4-[4-(4-fluorophenyl)piperazin-1-yl]butyl}-3-pentyl-1,3-dihydrobenzimidazol-2-one dihydrochloride] | – | – | > 10 µM | 5-HT2/σ2R preference for σ2Rs [4]: 58 fold; 5-HTT/σ2R selectivity for σ2Rs (serotonin transporters): 104 fold
